Assay results from paper PMC8772380, “Structural and Biochemical Investigation of Class I Ribonucleotide Reductase from the Hyperthermophile Aquifex aeolicus” (Biochemistry, 2021).

T1: A. aeolicus RNR (AaR1 + AaR2) (Aquifex aeolicus, UniProt O66503)
T1 construct: gene nrdA; full length AaR1 and AaR2 (construct lacking the 346-residue intein, equal to mature R2; natural precursor contains the intein), N-terminal His tags with thrombin site, E. coli expression; R2 42 kDa; with Ribonucleoside-diphosphate reductase subunit beta
T1 sequence (O66503 1-801): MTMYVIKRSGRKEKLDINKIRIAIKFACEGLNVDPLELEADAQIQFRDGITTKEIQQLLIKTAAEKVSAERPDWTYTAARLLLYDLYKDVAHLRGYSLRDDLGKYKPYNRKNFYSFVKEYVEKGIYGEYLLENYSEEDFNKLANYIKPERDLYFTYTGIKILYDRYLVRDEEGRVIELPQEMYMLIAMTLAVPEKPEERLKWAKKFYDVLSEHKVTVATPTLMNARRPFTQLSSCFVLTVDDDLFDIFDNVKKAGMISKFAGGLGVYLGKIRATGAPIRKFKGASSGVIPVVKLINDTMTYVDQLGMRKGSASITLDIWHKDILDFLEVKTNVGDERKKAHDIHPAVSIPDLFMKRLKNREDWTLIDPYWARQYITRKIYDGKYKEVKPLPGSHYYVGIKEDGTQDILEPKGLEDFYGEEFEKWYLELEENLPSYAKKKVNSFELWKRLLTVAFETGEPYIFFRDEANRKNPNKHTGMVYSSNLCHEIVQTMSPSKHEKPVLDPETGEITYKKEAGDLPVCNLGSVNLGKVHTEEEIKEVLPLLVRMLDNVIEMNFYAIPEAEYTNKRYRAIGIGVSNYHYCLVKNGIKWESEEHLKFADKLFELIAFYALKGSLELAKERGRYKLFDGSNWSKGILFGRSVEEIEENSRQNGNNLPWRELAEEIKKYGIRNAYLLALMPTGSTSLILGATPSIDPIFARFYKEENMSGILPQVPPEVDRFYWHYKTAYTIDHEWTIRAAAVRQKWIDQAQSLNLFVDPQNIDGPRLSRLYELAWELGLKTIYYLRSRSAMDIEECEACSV
T1 sequence (O67475 1-229 partner): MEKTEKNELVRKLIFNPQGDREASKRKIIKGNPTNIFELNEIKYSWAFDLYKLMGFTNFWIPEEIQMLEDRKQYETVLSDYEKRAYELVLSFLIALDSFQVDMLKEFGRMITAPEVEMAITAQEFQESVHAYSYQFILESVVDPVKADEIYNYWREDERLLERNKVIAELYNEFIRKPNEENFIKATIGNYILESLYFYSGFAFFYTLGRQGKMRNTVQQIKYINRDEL
T1 sequence (O67475 576-696 partner): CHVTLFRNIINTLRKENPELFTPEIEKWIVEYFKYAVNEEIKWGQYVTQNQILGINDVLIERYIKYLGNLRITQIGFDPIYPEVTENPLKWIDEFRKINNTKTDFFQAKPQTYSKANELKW

T2: AaR1 (Aquifex aeolicus, UniProt O66503)
T2 construct: gene nrdA; full length, N-terminal His tag and thrombin site (pET-28a), expressed in E. coli BL21(DE3); 93 kDa; monomer-dimer equilibrium
T2 sequence (O66503 1-801): T1 sequence (O66503 1-801)

B1: Aquifex aeolicus ribonucleotide reductase R1 protein (α-subunit) (enzyme, UniProt O66503 1-801, looked up)
chain: T1 sequence (O66503 1-801)
notes: Class I ribonucleotide reductase large (α) subunit R1, NrdAh subclass, Aquifex aeolicus; full length, synthetic gene (Genscript) in pET-28a(+) with N-terminal His tag and thrombin cleavage site; theoretical mass of the polypeptide 93 kDa; Homodimer in the crystal; monomer-dimer equilibrium in GEMMA and SEC; No removal of the His tag by thrombin is described; also called AaR1; NrdAh; source: E. …
B2: Aquifex aeolicus ribonucleotide reductase R2 protein (β-subunit), from a construct lacking the intein (enzyme, UniProt O67475 1-229, looked up)
chain: MEKTEKNELVRKLIFNPQGDREASKRKIIKGNPTNIFELNEIKYSWAFDLYKLMGFTNFWIPEEIQMLEDRKQYETVLSDYEKRAYELVLSFLIALDSFQVDMLKEFGRMITAPEVEMAITAQEFQESVHAYSYQFILESVVDPVKADEIYNYWREDERLLERNKVIAELYNEFIRKPNEENFIKATIGNYILESLYFYSGFAFFYTLGRQGKMRNTVQQIKYINRDELCHVTLFRNIINTLRKENPELFTPEIEKWIVEYFKYAVNEEIKWGQYVTQNQILGINDVLIERYIKYLGNLRITQIGFDPIYPEVTENPLKWIDEFRKINNTKTDFFQAKPQTYSKANELKW
notes: Class I ribonucleotide reductase small (β) subunit R2, Aquifex aeolicus; Leu229 is joined to Cys230; The natural gene product carries the intein between Leu229 and Cys230; Theoretical mass of the polypeptide 42 kDa. numbers count on: the mature protein (intein removed); Homodimer in the crystal, GEMMA and SEC; No removal of the His tag is described; also called AaR2; mature AaR2; source: E. coli …

Tests used:
[1] = biological target: T1, A. aeolicus RNR (AaR1 + AaR2); assay: HPLC NDP reduction assay; type: biochemical; conditions: pH 6.8, 79 °C
AaR1 = biological target: T2, AaR1; assay: GEMMA, effector-induced R1 dimerization; type: binding; conditions: allosteric; 100 µM dATP, equimolar Mg acetate, 300 mM ammonium acetate pH 7.5, preincubated at 78 °C
[2] = biological target: the molecule itself; assay: GEMMA (gas-phase electrophoretic mobility macromolecule analysis); individual R1 or R2 at 0.25 μM, 300 mM ammonium acetate pH 7.5, 0.005% Tween 20, without or with 300 μM ATP or 100 μM dATP (equimolar magnesium acetate); preincubated 2 min at 78 °C, analysed at room temperature
[3] = biological target: B1; assay: SEC; equimolar AaR1 and AaR2, 20 μM, with ATP and MgCl2; Superdex 200 PC 3.2/30, 20 mM Hepes pH 7.4, 75 mM NaCl, 0.2 mM TCEP; preincubated 5 min at 70 °C, run at 7 °C; top peak fraction analysed by SDS-PAGE; conditions: both partners purified

## Nc1nc2c(ncn2[C@H]2C[C@H](O)[C@@H](COP(=O)(O)OP(=O)(O)OP(=O)(O)O)O2)c(=O)[nH]1 [dGTP]
[1]; allosteric effector, s-site, induces ADP reduction, 2 mM dGTP, four substrates 0.5 mM each
  HPLC NDP reduction assay: dTTP and dGTP induce the reduction of GDP and ADP, respectively

## Nc1ncnc2c1ncn2[C@H]1C[C@H](O)[C@@H](COP(=O)(O)OP(=O)(O)OP(=O)(O)O)O1 [dATP]
AaR1
  GEMMA, effector-induced R1 dimerization: Allosteric effectors stimulated R1 dimerization, although complete conversion to dimers was not obtained

## Nc1nc2c(ncn2[C@@H]2O[C@H](COP(=O)(O)OP(=O)(O)O)[C@@H](O)[C@H]2O)c(=O)[nH]1 [GDP]
[1]; 0.5 mM GDP with CDP, ADP and UDP, dTTP effector 2 mM, 10 mM DTT
  HPLC NDP reduction assay: specific activities for the conversion of CDP, UDP, GDP, and ADP to their corresponding dNDPs

## Nc1ncnc2c1ncn2[C@@H]1O[C@H](COP(=O)(O)OP(=O)(O)OP(=O)(O)O)[C@@H](O)[C@H]1O [ATP]
[1]; allosteric activator, 2 mM ATP, four substrates 0.5 mM each, 10 mM DTT, 10 mM Mg acetate, titration with CDP in Figure S3
  HPLC NDP reduction assay: ATP induces the reduction of CDP and UDP

## B1
[2]
  stoichiometry N: 2

## B2
[2]
  stoichiometry N: 2
[3]
  stoichiometry N: 1 AaR1:AaR2
